This is an account of results in patent US10421722B2, “Sulfur-containing compounds targeting vesicular acetylcholine transporter” (Washington University, priority 2016, dated 2019).

A word on the Ki: it is the dissociation constant of the complex between target and ligand, obtained from inhibition or displacement.

Molecules are shown by their SMILES. Where two headings read alike, the source gives them in different places.

The target of one test is human VAChT (Homo sapiens (Human), UniProt Q16572). The experiment in a line: VAChT binding, competition against [3H]Vesamicol. The settings on record: oxalate form, expressed human VAChT, mean ± SEM. On the procedure: (§1) In vitro binding studies were performed to measure the affinities to the VAChT and σ1 and σ2 receptors. VAChT binding was assayed using membrane homogenate from PC12 cells which overexpress human VAChT.^8 The σ1 and σ2 binding affinities were assayed in […], respectively.
human VAChT, sequence (Q16572 whole entry): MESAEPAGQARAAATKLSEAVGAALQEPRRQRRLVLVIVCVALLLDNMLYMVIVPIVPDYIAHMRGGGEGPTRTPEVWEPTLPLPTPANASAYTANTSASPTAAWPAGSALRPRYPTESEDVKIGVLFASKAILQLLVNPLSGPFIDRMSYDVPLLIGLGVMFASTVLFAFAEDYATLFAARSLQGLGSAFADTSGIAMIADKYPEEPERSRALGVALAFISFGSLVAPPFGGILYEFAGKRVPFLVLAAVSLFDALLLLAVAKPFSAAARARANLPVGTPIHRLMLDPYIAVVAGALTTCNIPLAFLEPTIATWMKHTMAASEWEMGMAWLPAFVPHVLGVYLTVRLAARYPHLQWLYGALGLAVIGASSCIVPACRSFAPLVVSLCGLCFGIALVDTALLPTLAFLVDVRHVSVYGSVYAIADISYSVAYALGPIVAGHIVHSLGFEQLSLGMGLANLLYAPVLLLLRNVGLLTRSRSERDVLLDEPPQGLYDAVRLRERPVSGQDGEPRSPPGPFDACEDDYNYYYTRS
The test compounds were assayed in increments of 10-fold from 0.1 to 10,000 nM concentration. The surfaces of containers were pre-coated with Sigmacote (Sigma-Aldrich, Mo.). Samples containing 200 μg postnuclear supernatant in 200 μL of 110 mM potassium tartrate, 20 mM HEPES (pH 7.4 with KOH), 1 mM dithiothreitol, and 0.02% sodium azide were incubated at 22° C. for 24 h. A volume of 90 μL was filtered in duplicate through GF/F glass fiber filters coated with polyethylenimine and washed. Filter-bound radioactivity was determined by liquid scintillation spectrometry for 10 min per sample. Averaged data were fitted by regression with a rectangular hyperbola to estimate Ki value. All the compounds were independently assayed at least two times.

The target of another test is σ2 receptor (Rattus norvegicus (Rat), UniProt Q5U3Y7). The experiment in a line: σ2 receptor binding, [3H]DTG. To be noted: for Ki: oxalate form, homogenates of rat liver; for Selectivity ratio VAChT/σ2: ratio of Ki values. On the procedure:
In vitro binding studies were performed to measure the affinities to the VAChT and σ1 and σ2 receptors. […]
(§2) Briefly, to measure the σ1 receptor binding affinity, we use guinea pig brain membrane homogenates (˜300 μg protein) tissues as the receptor resource and ˜5 nM [^3H](+)-Pentazocine (34.9 Ci/mmol, Perkin Elmer, Boston, Mass.) as the radioligand. The mixture was incubated in 96-well plates for 90 min at room temperature. Nonspecific binding was determined from samples containing 10 μM of nonradioactive Haloperidol. After 90 min, the mixture was transferred into a 96-well fiberglass filter plate (Millipore, Billerica, Mass.) presoaked with 100 μL of 50 mM Tris-HCl buffer at pH 8.0 for 60 min, followed by addition of 150 μL of ice-cold wash buffer (10 mM Tris-HCl, 150 mM NaCl, pH 7.4). The harvested samples were filtered rapidly and washed with 3×200 μL portions of ice-cold wash buffer, and the filterers were counted by a Wallac 1450 MicroBeta liquid scintillation counter (Perkin-Elmer, Boston, Mass.). […] The mixture was incubated for 120 min at room temperature. Nonspecific binding was determined from samples containing 10 μM of nonradioactive Haloperidol. All other procedures were similar to those described for the σ1 receptor binding assay above. Data from the competitive binding experiments were modeled using nonlinear regression analysis to determine the concentration that inhibits 50% of the specific binding of the radioligand. Competitive binding curves were best fit to a one-site fit and gave pseudo-Hill coefficients of 0.6-1.0. Ki values were calculated using the method of Cheng and Prusoff,^35 then presented as the mean±SEM.

The target in the next test is σ1 receptor (Cavia porcellus (Guinea pig), UniProt Q60492). The experiment in a line: σ1 receptor binding, [3H](+)-Pentazocine. The settings on record: for Ki: oxalate form, homogenates of guinea pig brain, mean ± SEM; for Selectivity ratio VAChT/σ1: ratio of Ki values. On the procedure: as §1, §2
σ1 receptor, sequence (Q60492 whole entry): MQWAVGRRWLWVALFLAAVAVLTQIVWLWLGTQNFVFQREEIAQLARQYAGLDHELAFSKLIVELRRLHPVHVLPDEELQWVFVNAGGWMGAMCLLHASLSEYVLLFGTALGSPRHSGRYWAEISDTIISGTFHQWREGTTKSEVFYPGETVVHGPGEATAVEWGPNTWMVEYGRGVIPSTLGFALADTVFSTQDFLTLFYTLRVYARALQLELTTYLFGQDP
The mark [1] stands for this setting: Table 2, read-out: Ki (nM) VAChT.
[2] abbreviates: Table 1, read-out: Ki (nM) for VAChT.

σ2 receptor, sequence (Q5U3Y7 whole entry): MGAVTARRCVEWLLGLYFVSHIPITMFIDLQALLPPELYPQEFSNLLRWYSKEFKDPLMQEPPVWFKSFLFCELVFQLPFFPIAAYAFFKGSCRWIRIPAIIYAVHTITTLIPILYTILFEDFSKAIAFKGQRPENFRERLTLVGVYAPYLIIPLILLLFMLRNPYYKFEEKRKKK

As to `CS(=O)(=O)c1ccc(C(=O)C2CCN([C@@H]3Cc4ccccc4C[C@H]3O)CC2)cc1` (single isomer, unassigned) [(+)-2], at human VAChT (setting [1]), the Ki was determined as 193 ± 17.8 nM. On σ2 receptor, the Ki is above 1000 nM and the “Selectivity ratio VAChT/σ2” value is on record as above 5. Also, on σ1 receptor, the Ki is 18.5 ± 3.4 nM and the “Selectivity ratio VAChT/σ1” value was 0.1.
In the case of `O=C(c1ccc(S(=O)(=O)NCCF)cc1)C1CCN(C2Cc3ccccc3CC2O)CC1` (centres unmarked) [Compound 6b, N-(2-fluoroethyl)-4-(1-(3-hydroxy-1,2,3,4-tetrahydronaphthalen-2-yl)piperidine-4-carbonyl)benzenesulfonamide], the Ki on human VAChT (setting [2]) was 13 nM.
For the compound `CS(=O)(=O)c1ccc(C(=O)C2CCN(C3Cc4ccccc4CC3O)CC2)cc1` (racemic) [Compound 2, (1-(3-Hydroxy-1,2,3,4-tetrahydronaphthalen-2-yl)piperidin-4-yl)(4 (methylsulfonyl)phenyl)methanone], the Ki on human VAChT (setting [2]) came to 5.4 nM. Besides, on σ2 receptor, the Ki was above 1000 nM and the “Selectivity ratio VAChT/σ2” value was above 185. In addition, on σ1 receptor, the Ki worked out at 16.5 ± 2.1 nM and the “Selectivity ratio VAChT/σ1” value is recorded as 3.1.
As for `O=C(c1ccc(SCCF)cc1)C1CCN([C@@H]2Cc3ccccc3C[C@H]2O)CC1` (single isomer, unassigned) [(−)-[^18F]9a], the Ki at human VAChT (Table 2, listed as (−)-[18F]9a, read-out: Ki (nM) VAChT) was 2.2 nM.
As to `O=C(c1ccc(SCCF)cc1)C1CCN(C2Cc3ccccc3CC2O)CC1` (racemic) [Compound 9a, (4-((2-Fluoroethyl)thio)phenyl)(1-(3-hydroxy-1,2,3,4-tetrahydronaphthalen-2-yl)piperidin-4-yl)methanone], the Ki on human VAChT (setting [2]) was 2.4 nM; on σ2 receptor, above 1000 nM; at σ1 receptor it was 16.7 ± 2.1 nM. Moreover, the “Selectivity ratio VAChT/σ2” value at σ2 receptor is above 416. Besides, the “Selectivity ratio VAChT/σ1” value at σ1 receptor is 7.0.
As to `O=C(c1ccc(SCCF)cc1)C1CCN([C@@H]2Cc3ccccc3C[C@H]2O)CC1` (single isomer, unassigned) [(+)-9a], the Ki at human VAChT (setting [1]) worked out at 11.8 ± 2.7 nM. Further, on σ2 receptor, the Ki was above 1000 nM and the “Selectivity ratio VAChT/σ2” value is above 84. For the same compound, at σ1 receptor, the Ki was 14.4 ± 2 nM and the “Selectivity ratio VAChT/σ1” value turned out to be 1.2.
The like results for `O=C(c1ccc(SCCF)cc1)C1CCN(C2Cc3ccccc3CC2O)CC1` (single isomer, unassigned; (-)) [(−)-9a] were, in that order, 2.2 nM, above 1000 nM, above 454, 30.8 ± 4.1 nM and 13.4.
In the case of `O=C(c1ccc(SCCCF)cc1)C1CCN(C2Cc3ccccc3CC2O)CC1` (racemic) [Compound 9b, (4-((3-Fluoropropyl)thio)phenyl)(1-(3-hydroxy-1,2,3,4-tetrahydronaphthalen-2-yl)piperidin-4-yl)methanone], the Ki on human VAChT (setting [2]) was 2.3 nM; on σ2 receptor, above 1000 nM; on σ1 receptor, 40.8 ± 4.1 nM. In addition, the “Selectivity ratio VAChT/σ2” value on σ2 receptor was above 434. The “Selectivity ratio VAChT/σ1” value at σ1 receptor is recorded as 17.7.
Regarding `O=C(c1ccc(SCCCF)cc1)C1CCN(C2Cc3ccccc3CC2O)CC1` (single isomer, unassigned; (-)) [(−)-9b], the inhibition constant (Ki) on human VAChT (setting [1]) came to 1.4 nM. For the same compound, at σ2 receptor, the Ki is above 1000 nM and the “Selectivity ratio VAChT/σ2” value is reported as above 714. On σ1 receptor, the Ki was 4.1 ± 0.7 nM and the “Selectivity ratio VAChT/σ1” value turned out to be 2.9.
Take `CSc1ccc(C(=O)C2CCN(C3Cc4ccccc4CC3O)CC2)cc1` (single isomer, unassigned; (-)) [(−)-3]: the Ki on human VAChT (setting [1]) is 1.4 nM; at σ2 receptor, above 1000 nM; at σ1 receptor, 19 ± 5.6 nM. Moreover, the “Selectivity ratio VAChT/σ2” value on σ2 receptor is given as above 714. Further, at σ1 receptor, the “Selectivity ratio VAChT/σ1” value was determined as 13.6.
Turning to `O=C(c1ccc(S(=O)(=O)CCCF)cc1)C1CCN(C2Cc3ccccc3CC2O)CC1` (centres unmarked) [Compound 7, (4-((3-Fluoropropyl)sulfonyl)phenyl)(1-(3-hydroxy-1,2,3,4-tetrahydronaphthalen-2-yl)piperidin-4-yl)methanone], the Ki at human VAChT (setting [2]) turned out to be 12.8 ± 0.7 nM.
With `CSc1ccc(C(=O)C2CCN([C@@H]3Cc4ccccc4C[C@H]3O)CC2)cc1` (single isomer, unassigned) [(+)-3], the Ki on human VAChT (setting [1]) stood at 13.8 ± 1.1 nM. For the same compound, on σ2 receptor, the Ki is above 1000 nM and the “Selectivity ratio VAChT/σ2” value is given as above 72. At σ1 receptor, the Ki was determined as 23.3 ± 2.9 nM and the “Selectivity ratio VAChT/σ1” value is 1.7.
As for `CSc1ccc(C(=O)C2CCN(C3Cc4ccccc4CC3O)CC2)cc1` (racemic) [Compound 3, (1-(3-Hydroxy-1,2,3,4-tetrahydronaphthalen-2-yl)piperidin-4-yl)(4-(methylthio)phenyl)methanone], the figures for the Ki at human VAChT (setting [2]), at σ2 receptor and on σ1 receptor were 2.4 nM, above 1000 nM and 17.2 ± 4 nM, respectively. On σ2 receptor, the “Selectivity ratio VAChT/σ2” value is given as above 416. Also, the “Selectivity ratio VAChT/σ1” value on σ1 receptor is on record as 7.2.
As to `CS(=O)(=O)c1ccc(C(=O)C2CCN(C3Cc4ccccc4CC3O)CC2)cc1` (single isomer, unassigned; (-)) [(−)-2], at human VAChT (setting [1]), the Ki is 4.1 ± 0.9 nM. Besides, on σ2 receptor, the Ki was above 1000 nM and the “Selectivity ratio VAChT/σ2” value is given as above 243. Moreover, at σ1 receptor, the Ki is 34.7 ± 4.9 nM and the “Selectivity ratio VAChT/σ1” value was found to be 8.5.
On to `O=C(c1ccc(SCCCF)cc1)C1CCN([C@@H]2Cc3ccccc3C[C@H]2O)CC1` (single isomer, unassigned) [(+)-9b], for which the Ki is 19.9 ± 9.2 nM on human VAChT (setting [1]), above 1000 nM at σ2 receptor and 38.6 ± 7.1 nM on σ1 receptor. The “Selectivity ratio VAChT/σ2” value on σ2 receptor is above 50. Further, the “Selectivity ratio VAChT/σ1” value at σ1 receptor was found to be 1.9.
`C[S+]([O-])c1ccc(C(=O)C2CCN(C3Cc4ccccc4CC3O)CC2)cc1` (centres unmarked) [Compound 4, (1-(3-Hydroxy-1,2,3,4-tetrahydronaphthalen-2-yl)piperidin-4-yl)(4-(methylsulfinyl)phenyl)methano-ne]: the Ki at human VAChT (setting [2]) is 6.5 nM.
`CNS(=O)(=O)c1ccc(C(=O)C2CCN(C3Cc4ccccc4CC3O)CC2)cc1` (centres unmarked) [Compound 6a, 4-(1-(3-Hydroxy-1,2,3,4-tetrahydronaphthalen-2-yl)piperidine-4-carbonyl)-N-methylbenzenesulfon-amide]: the Ki at human VAChT (setting [2]) came out at 6.3 nM.
